Measurements reported in patent US8592446B2, “[1,10]-phenanthroline derivatives for the treatment of neurodegenerative or haematological diseases” (Noscira, S.A., priority 2007, dated 2013).

Assays:
Assay type in all cases: cell-based
[1] = test system: SH-SY5Y human neuroblastoma cells; assay: Protection against 6-OHDA-induced cell death, condition B (no fetal bovine serum); conditions: preincubated 1 hour, 6-OHDA 50 μM 24 hours, read-out: Protect. 6-OHDA (−FBS) (minimum concentration with neuroprotective effect)
Description: (§1) The aim of this experiment is to determine the protective effect of the compounds of formula (1) against the toxicity caused by 6-OHDA. This toxin induces a cell death similar to which occurs in Parkinson's disease, destroying dopaminergic neurons (“MPTP and 6-hydroxydopamine-induced neurodegeneration as models for Parkinson's disease: neuroprotective strategies”; Grunblatt E, et al.; J Neurol. 2000 Apr; 247 Suppl 2:II95-102).
(§2) Two or three days before the experiment, the SH-SY5Y human neuroblastoma cells are seeded into 96-well culture plate at a density of 10^4 cells/well. Cells are exposed to the treatment with 6-OHDA and, finally, cell death is measured by LDH quantification. As positive control we used NAC.
• B) NAC and the compound of formula (I) are preincubated during 1 hour before the treatment with 6-OHDA 50 μM during 24 hours. The assay is performed in a medium without any fetal bovine serum.
(§3) For each compound the minimum concentration of compound of formula (I) at which a neuroprotective effect is shown.

[2] = test system: SH-SY5Y human neuroblastoma cells; assay: Toxicity: LDH activity release in SH-SY5Y cells; conditions: 24 h; for Maximum concentration tested for toxicity: increasing concentrations from 1 μM up to 1 mM; for Toxic at maximum concentration tested (Yes/No): at 10 μM
Description: The potential effects on cell viability of the assayed compounds are assayed in SH-SY5Y human neuroblastoma cells, by quantification of Lactate dehydrogenase (LDH) activity release. SH-SY5Y human neuroblastoma cells are seeded into 96-well culture plates at 10^4 cells/well. The medium is then removed and the cells incubated with different concentrations of the compounds during 24 h. The compounds are tested at increasing concentrations starting from 1 μM, in fresh culture medium, in order to find the minimum concentration at which the compounds are toxic, up to a maximum of 1 mM. After 24 h, the medium is removed and cells attached to the bottom of the well are lysed by adding 50 μl of Krebs-Hepes; Triton X-100 1% during 5 minutes at room temperature. For LDH release quantification, the Roche cytotoxicity detection kit (Cat.
No. 11 644 793 001) is used. The LDH activity is measured by its absorbance at 492 nm with reference wavelength 620 nm.
In Table 1, for each compound the maximum concentration at which toxicity was tested is indicated in the second column. In the third column, it is indicated whether at this maximum concentration the compound was toxic or not. All the compounds, with the exception of Compound 3, resulted non-toxic at the concentration for which activity was found, in most of the cases even at a 1000-fold concentration. Thus, the compounds may be considered non-toxic.

[3] = test system: Aβ (1-40) secretion by CHO7W cells (stably transfected with human APP751 wt cDNA); assay: Inhibition of Aβ(1-40) secretion (ELISA, cellular supernatants); conditions: Homo sapiens, CHO-7W, Aβ 1-40 ELISA, read-out: Inhibition secretion beta-amyloid (minimum concentration)
Description: To quantitate Aβ secretion ELISA-based method was used. The assay consists in detection of antigen by selective monoclonal anti-Aβ-antibodies at two different epitopes forming a “Sandwich-complex”, that is detected by colorimetric measure due to the binding of a secondary antibody conjugated with peroxidase that catalyses the conversion of a substrate or chromogen, TMB, into a coloured product, directly proportional to the peptide quantity in the sample. The Aβ production has been analyzed by ELISA, using a colorimetric commercial kit: Immunoassay Kit Human β Amyloid 1-40 (Biosource).
Aβ (1-40) were quantified from cellular supernatants. An APP-transfected cell line has been employed for the experiments: CHO7W (stably transfected with human APP751 wt cDNA). The cells were grown in a culture medium consisting of DMEM supplemented with 2% Fetal bovine serum, 1% penicillin-streptomycin, 1% L-glutamine and 200 μg/ml G418. Cells are seeded in 96-well culture microplate, at 5000 cells/well and treatment with different compounds at different concentrations is performed 24 hour after seeding.
OM99-2 (H-5108, Bachem), a BACE inhibitor, was used as Aβ secretion reduction positive control in all the Aβ secretion studies. The cells were treated with this compound at 3 μM concentration, culture media were collected at 24 hours.

SH-SY5Y cells = assay: Neuroprotection against Aβ25-35 toxicity (LDH assay); conditions: Homo sapiens, pre-treated 1 hour, 200 μM Aβ25-35 24 hours, read-out: Protect. beta-Amyloid25-35 (minimum concentration showing neuroprotection)
Description: In order to evaluate potential neuroprotection of compounds, SH-SY5Y cells, cultured in 96-well plates, were pre-treated for 1 hour with the compound at different concentrations and then exposed 24 hours to 200 μM Aβ25-35 (Neosystem) to induce extensive oxidative stress and cell death. The ability of the compound of protecting against this toxicity is then evaluated by measuring intracellular LDH, using the colorimetric LDH assay.
It is widely accepted that the neurotoxic activity of Aβ resides within amino acids 25-35 (see e.g. Yankner B A et al., (1990) Neurotrophic and neurotoxic effects of amyloid β protein: reversal by tachykinin neuropeptides; Science 250:279-282).

[4] = test system: SH-SY5Y human neuroblastoma cells; assay: Protection against 6-OHDA-induced cell death, condition A (10% foetal bovine serum); conditions: preincubated 2 hours, 6-OHDA 75 μM 16 hours, read-out: Protect. 6-OHDA (+ FBS) (minimum concentration with neuroprotective effect)
Description: as §1, §2
• A) NAC and the compound of formula (I) are preincubated during 2 hours before the treatment with 6-OHDA 75 μM during 16 hours. The assay is performed in medium containing 10% Foetal bovine serum.
as §3

[5] = test system: SH-SY5Y human neuroblastoma cells; assay: Protection against hydrogen peroxide-induced cell death (LDH); conditions: Homo sapiens, SH-SY5Y, compound 1 h before H2O2 100 μM, 24 h, read-out: Protect. H2O2 (minimum concentration for which protection was determined)
Description: The aim of this assay is to determine the neuroprotective effect of the compounds of formula (I), when human neuroblastoma cells are exposed to oxidative stress induced by hydrogen peroxide, which is highly deleterious to the cell and its accumulation causes oxidation of cellular targets such as DNA, proteins, and lipids leading to mutagenesis and cell death.
SH-SY5Y human neuroblastoma cells are seeded into 96-well culture plate at a density of 10^4 cells/well. Cells are exposed to different concentrations of the compound one hour before the treatment with H2O2 100 μM during 24 h. 5 mM N-acetylcysteine (NAC), a known anti-oxidant agent was used as a positive control, and preincubated 1 hour before the treatment with H2O2. After 24 h, the medium is removed and cells attached to the bottom of the well are lysed by adding 50 μl of Triton X-100 1% in Krebs-Hepes during 5 minutes at room temperature. For LDH release quantification, Roche cytotoxicity detection kit (Cat. No. 11 644 793 001) was used.

Row | Compound | minimal effective concentration [1] [µM] | Maximum concentration tested for toxicity [2] [µM] | Toxic at maximum concentration tested (Yes/No) [2] | minimal effective concentration [3] [µM] | minimal effective concentration (SH-SY5Y cells) [µM] | minimal effective concentration [4] [µM] | minimal effective concentration [5] [µM]
1 | O=C(O)CSc1cc(C=NO)nc2c1ccc1cccnc12 [Compound 16, [2-(Hydroxyimino-methyl)-[1,10]phenanthrolin-4-ylsulfanyl]-acetic acid] | 10 | 10 | Yes | 1 | 5 | 0.5 | 0.05
2 | Cc1nnc(Sc2cc(C=NO)nc3c2ccc2cccnc23)s1 [Compound 18, 4-(5-Methyl-[1,3,4]thiadiazol-2-ylsulfanyl)-[1,10]phenanthroline-2-carbaldehyde oxime] | 10 | 10 | Yes | 0.1 | 10 | 0.05 | 0.05
